Reference: patent publication US12384797B2, “Thioeno[3,2-b] pyridin-7-amine compounds for treating familial dysautonomia” (PTC THERAPEUTICS, INC., priority 2019, dated 2025)

Each compound was assayed on Elongator complex protein 1 (ELP1, also referred to as IKBKAP) (assay: IKBKAP-HTRF assay (IKBKAP protein in lysates of FD patient-derived fibroblasts)). Conditions: 48 hours incubation, 7-point concentration curve.
Type: cell-based, human
Outline: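 Sandwich HTRF with two labelled anti-IKAP antibodies (overnight, 4 °C) measured IKBKAP in lysates of FD patient fibroblasts. Cells were exposed to compound for 48 h at 37 °C (7-point curve, 3.16-fold steps, triplicates). EC2x is the dose doubling IKBKAP versus DMSO control; MFI is sample ΔF divided by vehicle ΔF.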
With `N[C@H](Cc1sc2c(NCc3cccs3)cc(Cl)nc2c1Br)CC(F)F` [Compound 107, 2-[(2S)-2-amino-4,4-difluorobutyl]-3-bromo-5-chloro-N-[(thiophen-2-yl)methyl]thieno[3,2-b]pyridin-7-amine] the “EC2x for IKBKAP protein expression (concentration producing two times the amount of IKBKAP protein vs DMSO vehicle control)” value was “***** (≤0.005 μM is indicated by five stars (*****))” and the “MFI (maximum fold increase in IKBKAP protein abundance relative to the vehicle control)” value was “***** (>4.9 is indicated by five stars (*****))”. For `N[C@H](Cc1sc2c(NCc3ccco3)cc(Cl)nc2c1Cl)C(=O)Nc1ccccc1` [Compound 122, 3-(3,5-dichloro-7-{[(furan-2-yl)methyl]amino}thieno[3,2-b]pyridin-2-yl)-N-phenyl-D-alaninamide], the “EC2x for IKBKAP protein expression (concentration producing two times the amount of IKBKAP protein vs DMSO vehicle control)” value was “**** (between >0.005 μM and ≤0.02 μM is indicated by four stars (****))” and the “MFI (maximum fold increase in IKBKAP protein abundance relative to the vehicle control)” value was “***** (>4.9 is indicated by five stars (*****))”. With `Cc1c(C[C@@H](N)CF)sc2c(NCc3cccs3)cc(Cl)nc12` [Compound 91, 2-[(2R)-2-amino-3-fluoropropyl]-5-chloro-3-methyl-N-[(thiophen-2-yl)methyl]thieno[3,2-b]pyridin-7-amine] the “EC2x for IKBKAP protein expression (concentration producing two times the amount of IKBKAP protein vs DMSO vehicle control)” value was “***** (≤0.005 μM is indicated by five stars (*****))” and the “MFI (maximum fold increase in IKBKAP protein abundance relative to the vehicle control)” value was “***** (>4.9 is indicated by five stars (*****))”. `Cc1c(C[C@H](C)N)sc2c(NCc3ccco3)cc(C#N)nc12` [Compound 20, 2-[(2S)-2-aminopropyl]-7-{[(furan-2-yl)methyl]amino}-3-methylthieno[3,2-b]pyridine-5-carbonitrile] was tested, and the “EC2x for IKBKAP protein expression (concentration producing two times the amount of IKBKAP protein vs DMSO vehicle control)” value was “***** (≤0.005 μM is indicated by five stars (*****))” and the “MFI (maximum fold increase in IKBKAP protein abundance relative to the vehicle control)” value was “***** (>4.9 is indicated by five stars (*****))”. `Clc1cc(NCc2nccs2)c2scc(Cl)c2n1` [Compound 8, 3,5-dichloro-N-[(1,3-thiazol-2-yl)methyl]thieno[3,2-b]pyridin-7-amine] was tested, and the “EC2x for IKBKAP protein expression (concentration producing two times the amount of IKBKAP protein vs DMSO vehicle control)” value was “*** (between >0.02 μM and ≤0.5 μM is indicated by three stars (***))” and the “MFI (maximum fold increase in IKBKAP protein abundance relative to the vehicle control)” value was “***** (>4.9 is indicated by five stars (*****))”. With `Cc1c(C[C@@H](N)CCF)sc2c(NCc3ccco3)cc(Cl)nc12` [Compound 95, 2-[(2S)-2-amino-4-fluorobutyl]-5-chloro-N-[(furan-2-yl)methyl]-3-methylthieno[3,2-b]pyridin-7-amine] the “EC2x for IKBKAP protein expression (concentration producing two times the amount of IKBKAP protein vs DMSO vehicle control)” value was “***** (≤0.005 μM is indicated by five stars (*****))” and the “MFI (maximum fold increase in IKBKAP protein abundance relative to the vehicle control)” value was “***** (>4.9 is indicated by five stars (*****))”. With `N#Cc1cc(NCc2cccs2)c2scc(C#N)c2n1` [Compound 12, 7-{[(thiophen-2-yl)methyl]amino}thieno[3,2-b]pyridine-3,5-dicarbonitrile] the “EC2x for IKBKAP protein expression (concentration producing two times the amount of IKBKAP protein vs DMSO vehicle control)” value was “*** (between >0.02 μM and ≤0.5 μM is indicated by three stars (***))” and the “MFI (maximum fold increase in IKBKAP protein abundance relative to the vehicle control)” value was “** (between >1.9 and ≤2.9 is indicated by two stars (**))”. `C[C@H](N)C(=O)c1sc2c(NCc3cccs3)cc(Cl)nc2c1Br` [Compound 156, (2S)-2-amino-1-(3-bromo-5-chloro-7-{[(thiophen-2-yl)methyl]amino}thieno[3,2-b]pyridin-2-yl)propan-1-one] was tested, and the “EC2x for IKBKAP protein expression (concentration producing two times the amount of IKBKAP protein vs DMSO vehicle control)” value was “*** (between >0.02 μM and ≤0.5 μM is indicated by three stars (***))” and the “MFI (maximum fold increase in IKBKAP protein abundance relative to the vehicle control)” value was “*** (between >2.9 and ≤3.9 is indicated by three stars (***))”.
